One assay has as its target Prothrombin (Homo sapiens, UniProt P00734). The assay can be described thus: Thrombin 1536 HTS Dose Response Confirmation. [Related pubchem assays: 1046 (Thrombin 1536 HTS; hits were confirmed in this assay)]. Type of assay: functional.
The target in assay [1] is T1, Replicative DNA helicase DnaB (Mycobacterium tuberculosis, UniProt P9WMR3).
T1 sequence (P9WMR3 whole entry): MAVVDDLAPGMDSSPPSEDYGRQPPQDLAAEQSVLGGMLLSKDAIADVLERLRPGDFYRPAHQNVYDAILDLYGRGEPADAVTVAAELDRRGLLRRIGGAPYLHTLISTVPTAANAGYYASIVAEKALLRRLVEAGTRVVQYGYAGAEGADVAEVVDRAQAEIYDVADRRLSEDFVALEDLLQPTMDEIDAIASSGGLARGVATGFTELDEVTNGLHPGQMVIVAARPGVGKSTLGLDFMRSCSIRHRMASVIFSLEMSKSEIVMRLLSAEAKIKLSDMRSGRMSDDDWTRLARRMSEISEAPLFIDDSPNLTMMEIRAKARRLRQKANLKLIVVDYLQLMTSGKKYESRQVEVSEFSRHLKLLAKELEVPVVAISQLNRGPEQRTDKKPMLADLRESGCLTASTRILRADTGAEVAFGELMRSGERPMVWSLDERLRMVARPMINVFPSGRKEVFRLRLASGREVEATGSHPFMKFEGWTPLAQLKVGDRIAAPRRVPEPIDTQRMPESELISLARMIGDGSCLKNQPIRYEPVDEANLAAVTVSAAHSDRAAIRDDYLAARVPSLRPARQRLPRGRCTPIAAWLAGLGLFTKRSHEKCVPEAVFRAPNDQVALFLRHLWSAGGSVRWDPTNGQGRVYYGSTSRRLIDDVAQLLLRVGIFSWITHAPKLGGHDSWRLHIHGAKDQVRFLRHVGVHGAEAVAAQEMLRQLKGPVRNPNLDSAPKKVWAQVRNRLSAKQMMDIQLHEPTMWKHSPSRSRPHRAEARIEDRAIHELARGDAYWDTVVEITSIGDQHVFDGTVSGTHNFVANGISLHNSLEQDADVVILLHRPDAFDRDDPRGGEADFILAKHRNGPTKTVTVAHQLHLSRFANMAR
Briefly: DnaB intein splicing inhibitors, dose response, biochemical, cell-free fluorescence (AID 449749). Type of assay: functional.

Another assay addresses T2, Protein RecA (Mycobacterium tuberculosis, UniProt P9WHJ3).
T2 sequence (P9WHJ3 whole entry): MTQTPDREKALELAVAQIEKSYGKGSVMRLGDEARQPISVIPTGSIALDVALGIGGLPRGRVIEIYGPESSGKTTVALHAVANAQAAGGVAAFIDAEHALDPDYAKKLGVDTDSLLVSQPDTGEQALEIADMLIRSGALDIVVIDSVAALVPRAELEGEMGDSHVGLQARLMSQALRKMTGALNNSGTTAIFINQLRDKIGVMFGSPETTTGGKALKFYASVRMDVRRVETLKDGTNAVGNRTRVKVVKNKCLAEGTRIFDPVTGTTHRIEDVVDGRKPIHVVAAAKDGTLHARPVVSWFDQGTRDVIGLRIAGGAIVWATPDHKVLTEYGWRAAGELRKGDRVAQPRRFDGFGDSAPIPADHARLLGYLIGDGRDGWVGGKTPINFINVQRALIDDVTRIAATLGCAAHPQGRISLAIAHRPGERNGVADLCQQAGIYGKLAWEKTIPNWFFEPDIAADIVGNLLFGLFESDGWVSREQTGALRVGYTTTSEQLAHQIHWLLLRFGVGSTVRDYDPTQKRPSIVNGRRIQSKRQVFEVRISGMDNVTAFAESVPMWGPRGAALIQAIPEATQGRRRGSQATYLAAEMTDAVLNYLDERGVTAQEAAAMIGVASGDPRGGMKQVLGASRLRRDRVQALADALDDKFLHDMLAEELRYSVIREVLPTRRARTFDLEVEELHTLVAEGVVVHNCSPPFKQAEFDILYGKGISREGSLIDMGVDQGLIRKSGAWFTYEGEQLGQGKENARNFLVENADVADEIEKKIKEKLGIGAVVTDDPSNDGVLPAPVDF
The assay can be described thus: Fluorescence Cell-Free Homogeneous Dose Retest to Identify Inhibitors of RecA-Intein Splicing Activity. [Related pubchem assays (depositor defined):AID2097, AID2223, AID489010, AID492950]. Type of assay: functional.

Assay [2] is described as follows: cells. The class given is functional, cell-based.
The nature of assay [3]: cells. The class given is functional, cell-based. This is another data set of the same source.
The nature of assay [4]: Trypanosoma cruzi growth suppression in host cells – NIH3T3 host cells, beta-gal luminescence, confirmation (AID 2044).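 Further: intracellular parasites grown in NIH/3T3 mouse fibroblasts as host cells; luminescent beta-galactosidase reporter signal from transgenic T. cruzi replicating inside host cells; inhibitors lower the luminescence signal.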 The class given is functional, cell-based.
For a further assay, the system named is HeLa. The assay can be described thus: ATP-based viability loss in HeLa cells – cell-based, CellTiter-Glo luminescence, cherry-pick samples, cytotoxicity control for MITF activator project, dose response (AID 540259). The class given is functional. The conditions noted are these: Homo sapiens. (In general: In ATP-based viability assays light output follows the ATP content of the culture.)

Assay [5] is described as follows: NIH3T3 cell viability loss – ATP luminescence, mouse fibroblasts, counter-screen, dose response (AID 2010).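 Further: cells exposed to compound for about 90 hours before reading.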 The class given is functional, cell-based. On the technique in general: Counterscreens check selectivity or assay interference.
Assay [6] can be described thus: HepG2 cell cytotoxicity, dose response, cytotoxicity control for non-replicating M. tuberculosis project (AID 489018). The following applies: Mycobacterium tuberculosis. Type of assay: functional.
Assay [7] can be described thus: THP-1 cell cytotoxicity, dose response, cytotoxicity control for non-replicating M. tuberculosis project (AID 489025). The class given is functional.
Another assay concerns the target Paired box protein Pax-8 (Homo sapiens, UniProt Q06710). Briefly: PAX8 transcriptional activity inhibition in RMG-I – RMG-I cells, luciferase, cherry-pick, dose response (AID 687027).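 Further: luciferase reporter driven by Pax8 target thyroperoxidase promoter measured by SteadyGlo luminescence.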 Type of assay: functional, cell-based.
Another assay deals with Vero. The assay can be described thus: cells. The class given is functional, cell-based. The following applies: Chlorocebus sabaeus.
Assay [8] has as its target T3, Luciferin 4-monooxygenase (Photinus pyralis, UniProt P08659). Briefly: Counter Screen for Luciferase-based Assay Positives. [Related pubchem assays: 620, 618, 411 ].
In a further assay the test system is HT-1080. Briefly: HT1080 cell viability loss – fluorescence readout (AID 620). The conditions noted are these: Homo sapiens. The class given is functional, cell-based.
Assay [9] concerns the target T3, Luciferin 4-monooxygenase. The assay can be described thus: inhibition of purified Photinus pyralis luciferase – biochemical, luminescence, dose response (AID 1891).
The nature of assay [10]: Luminescence Cell-Based Dose Confirmation HTS to Identify Inhibitors of Platelet Dense Granule Release. [Related pubchem assays: 1663 (Primary HTS), 1678 (Summary of Project)]. The class given is functional.
The nature of assay [11]: blockers of bursicon-stimulated LGR2 cAMP reporter – cell-based, HEK293, CRE-luciferase reporter, cherry pick, set 2, dose response (AID 743343).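 Further: transfected cells were stimulated with diluted bursicon conditioned medium after compound addition.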 Type of assay: functional.
A short description of assay [12]: A549 cell cytotoxicity, dose response, cytotoxicity control, plate reader, cherry-pick, antagonist series (AID 743412). Type of assay: functional, cell-based.
The nature of assay [13]: blockade of melanocortin 4 receptor signaling – cell-based, plate reader, cherry pick, counter-screen for LGR2 antagonist project, dose response (AID 743444).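 Further: transfected HEK 293 cells stimulated with alpha-MSH peptide; potency of inhibitors of the alpha-MSH evoked signal.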 Type of assay: functional.
Assay [14] is described as follows: toxicity toward HepG2 liver cells – cell-based, plate reader, cherry-pick, antagonist series, cytotoxicity control, dose response (AID 743416). The class given is functional.
Assay [15] concerns the target Dual specificity tyrosine-phosphorylation-regulated kinase 1A (Rattus norvegicus, UniProt Q63470). Type of assay: biochemical, Homo sapiens.
Assay [16] addresses FAD-linked sulfhydryl oxidase ALR (Homo sapiens, UniProt P55789). Briefly: ALR-catalysed DTT oxidation blockers – biochemical, H2O2 detection, luminescence, cherry-pick, dose response (AID 493248).
A further assay concerns H4. Briefly: Luminescence Cell-Based Dose Response HTS to Identify Activators of 5'UTR Stem-Loop Driven Prion Protein mRNA Translation in H4 Neuroglioblastoma Cells. [Related pubchem assays: 1829 (Project Summary), 1814 (Primary HTS)]. The class given is functional. The conditions noted are these: Homo sapiens.

Calls of active or inactive are those of the source.

We go through 18 compounds from ChEMBL document CHEMBL1201862, “PubChem BioAssay data set” (2004).

T3 sequence (P08659 whole entry): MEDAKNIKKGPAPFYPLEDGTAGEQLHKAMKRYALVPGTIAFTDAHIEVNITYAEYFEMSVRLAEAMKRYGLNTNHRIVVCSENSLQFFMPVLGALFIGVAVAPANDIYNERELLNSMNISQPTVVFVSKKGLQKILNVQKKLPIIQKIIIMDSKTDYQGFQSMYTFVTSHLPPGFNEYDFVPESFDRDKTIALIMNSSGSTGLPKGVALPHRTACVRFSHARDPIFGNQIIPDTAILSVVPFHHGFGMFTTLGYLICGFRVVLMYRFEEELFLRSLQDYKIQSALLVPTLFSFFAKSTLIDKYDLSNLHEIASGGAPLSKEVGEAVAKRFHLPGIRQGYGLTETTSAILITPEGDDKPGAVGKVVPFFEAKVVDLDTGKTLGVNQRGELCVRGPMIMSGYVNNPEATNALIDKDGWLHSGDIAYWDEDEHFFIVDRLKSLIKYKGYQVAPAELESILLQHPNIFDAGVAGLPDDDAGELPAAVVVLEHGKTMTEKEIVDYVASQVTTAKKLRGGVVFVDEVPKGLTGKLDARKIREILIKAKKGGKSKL
Chain of FAD-linked sulfhydryl oxidase ALR (P55789 whole entry): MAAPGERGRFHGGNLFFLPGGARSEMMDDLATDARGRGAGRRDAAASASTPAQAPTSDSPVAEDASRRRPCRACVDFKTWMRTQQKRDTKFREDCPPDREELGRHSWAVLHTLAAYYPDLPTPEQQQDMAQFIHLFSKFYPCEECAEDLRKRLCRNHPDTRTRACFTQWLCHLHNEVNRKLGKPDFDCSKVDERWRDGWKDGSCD
Chain of Paired box protein Pax-8 (Q06710 whole entry): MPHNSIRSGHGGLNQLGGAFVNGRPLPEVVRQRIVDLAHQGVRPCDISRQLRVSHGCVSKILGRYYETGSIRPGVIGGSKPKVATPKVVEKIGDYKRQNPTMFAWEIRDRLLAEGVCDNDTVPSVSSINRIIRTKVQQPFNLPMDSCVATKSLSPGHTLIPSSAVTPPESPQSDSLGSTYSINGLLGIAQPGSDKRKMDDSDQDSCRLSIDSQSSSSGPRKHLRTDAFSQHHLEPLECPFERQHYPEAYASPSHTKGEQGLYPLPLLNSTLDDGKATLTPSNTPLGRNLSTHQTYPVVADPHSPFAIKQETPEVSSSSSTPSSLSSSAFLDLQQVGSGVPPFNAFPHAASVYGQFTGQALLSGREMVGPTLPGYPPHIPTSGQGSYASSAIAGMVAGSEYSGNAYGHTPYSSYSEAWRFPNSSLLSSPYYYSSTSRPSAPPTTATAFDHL

In the case of `Nc1nc(C(=O)N2CCOCC2)nn1C(=O)c1ccc(Cl)cc1`, the IC50 on Prothrombin was 0.00512 µM (active). Besides, the AC50 in assay [1] is 12.5 µM (active). Further, at Protein RecA, the concentration giving a half-maximal response (EC50) was 23.4 µM (active).

Take `CC[n+]1c(S(=O)(=O)[O-])ccc2ccc(C)cc21`: the EC50 in “cells [2]” and in the assay “cells [3]” was > 350 µM (not active) each time.

As to `Cc1ccc(NCC(=O)c2ccc(C)cc2)cc1`, the EC50 in [4] was 4.53 µM (active); in assay [5], > 60 µM (not active). For the same compound, the AC50 in the assay on HeLa was 103 µM (active).

As to `CCOC(=O)Nc1ccc2c(c1)N(C(=O)CCCl)c1ccccc1[S@]2=O`, the CC50 in assay [6] was 18.9 µM (active); in assay [7], 24.7 µM (active). On Paired box protein Pax-8, the AC50 is 4.57 µM (active).

In the case of `CCN(CC)CCCNC(=O)c1ccc2c(Cl)c3c(nc2c1)CCCC3`, the IC50 in the assay with Vero is 22.6 µM (active).

As to `CCCc1ccc(-c2ccc(F)c(N)c2)nc1`, the EC50 in assay [8] is 1.58 µM (active); with HT-1080 it was > 50 µM (not active); in assay [9], 6.33 µM (active); in [10] it was 6.17 µM (active). Also, the AC50 was 4.32 µM (active) in assay [11], > 52 µM (inactive) in [12], 4.06 µM (active) in [13] and > 52 µM (inactive) in assay [14].

Turning to `CC(=O)Nc1cccc(-c2nc3ccc(NC(C)=O)cc3s2)c1`, the AC50 in the assay on HeLa was 59.3 µM (active).

As to `CC(Oc1ccc2ccc(=O)oc2c1)C(=O)NCCN1CCOCC1` (stereo not given), the EC50 in the assay “cells [2]” and in “cells [3]” was > 350 µM (not active) throughout.

For `N#C/C(=C/c1ccc(O)c([N+](=O)[O-])c1)C(=O)Nc1ccccc1`, the AC50 in assay [15] was 1.11 µM (active).

Turning to `Cc1ccc2[nH]c(-c3cccc(N)c3)nc2c1`, the EC50 is 0.49 µM (active) in [8] and 20.6 µM (active) in the assay on HT-1080. Moreover, the AC50 in assay [16] was 0.838 µM (active).

Turning to `CC(C)CC(NC(=O)c1ccccc1NC(=O)c1ccccc1)C(=O)O` (stereo not given), the concentration for a half-maximal effect (EC50) in “cells [2]” and in the assay “cells [3]” was > 350 µM (not active) in each case.

With `Cc1ccc(C(=O)Nc2nc3c(s2)CCCC3)o1`, the EC50 in assay [8] is > 100 µM (not active); with HT-1080, > 50 µM (not active).

Consider `COc1ccc(C2=NN(c3ccccc3)C(c3ccc(OC)c(OC)c3)C2)cc1` (stereo not given), for which the half-maximal activity concentration (AC50) in the assay on HeLa was 52 µM (active).

On to `O=C(Nc1nc2ccccc2[nH]1)c1ccccc1`, for which the EC50 in assay [8] was < 0.2 µM (active); in the assay with HT-1080, > 50 µM (not active).

With `CC(C)(C)c1cc(NC(=O)Nc2ccccc2)no1`, the EC50 in the assay with H4 was > 120 µM (not active). Further, in the assay on HeLa, the AC50 is > 350 µM (inactive).

As for `C/C(=N\OCc1ccc(C#N)cc1)c1ccc(S(=O)(=O)N(C)C)cc1`, the AC50 in the assay with HeLa was 147 µM (active).

With `COc1ccc(C(=O)NNC2=C(C(=O)C(F)(F)F)CCC2)cc1`, the results for the CC50 in [6] and in assay [7] were > 20 µM (active) and 18.1 µM (active), respectively.

As to `O=c1c2c(O)cc(O)cc2oc2ccc(O)c(O[C@@H]3O[C@H](CO)[C@@H](O)[C@H](O)[C@H]3O[C@H]3O[C@H](CO)[C@@H](O)[C@H](O)[C@H]3O)c12`, in [15], the AC50 is 3.69 µM (active).

The IC50 is the concentration that inhibits the measured activity by half. A word on the AC50: it is the concentration giving half of the maximal activity seen. What is called EC50 is the concentration giving half of the maximal effect. The term CC50 denotes the concentration at which the toxic effect on the cells reaches its halfway point.
